The record followed here is ChEMBL document CHEMBL4138191, “Organic arsenicals target thioredoxin reductase followed by oxidative stress and mitochondrial dysfunction resulting in apoptosis” (Eur J Med Chem, 2018).

The structures appear in SMILES notation. Activity calls are given as the source filed them. The calls are words filed in the database; no cut-off is given here.

What is called IC50 is the concentration that inhibits the measured activity by half.

Assay [1] relates to HL-60. In words: Cytotoxicity against human HL60 cells after 24 hrs by MTT assay. Particulars: for IC50: HL-60, 24 h. It counts as functional, cell-based. (In general: Tetrazolium dyes change colour on reduction, which living cells bring about.)
The test system of assay [2] is MCF7. Nature of the assay: Cytotoxicity against human MCF7 cells after 24 hrs by MTT assay. The note with it: for IC50: MCF7, 24 h. It counts as functional, cell-based.
The test system of assay [3] is MCF7. Nature of the assay: Cytotoxicity against human MCF7 cells after 48 hrs by MTT assay. The assay is classed as functional, cell-based. Particulars: for IC50: MCF7, 48 h.
Assay [4] concerns the target T1, Thioredoxin reductase 1, cytoplasmic (Homo sapiens) (UniProt Q16881).
T1 sequence (whole entry): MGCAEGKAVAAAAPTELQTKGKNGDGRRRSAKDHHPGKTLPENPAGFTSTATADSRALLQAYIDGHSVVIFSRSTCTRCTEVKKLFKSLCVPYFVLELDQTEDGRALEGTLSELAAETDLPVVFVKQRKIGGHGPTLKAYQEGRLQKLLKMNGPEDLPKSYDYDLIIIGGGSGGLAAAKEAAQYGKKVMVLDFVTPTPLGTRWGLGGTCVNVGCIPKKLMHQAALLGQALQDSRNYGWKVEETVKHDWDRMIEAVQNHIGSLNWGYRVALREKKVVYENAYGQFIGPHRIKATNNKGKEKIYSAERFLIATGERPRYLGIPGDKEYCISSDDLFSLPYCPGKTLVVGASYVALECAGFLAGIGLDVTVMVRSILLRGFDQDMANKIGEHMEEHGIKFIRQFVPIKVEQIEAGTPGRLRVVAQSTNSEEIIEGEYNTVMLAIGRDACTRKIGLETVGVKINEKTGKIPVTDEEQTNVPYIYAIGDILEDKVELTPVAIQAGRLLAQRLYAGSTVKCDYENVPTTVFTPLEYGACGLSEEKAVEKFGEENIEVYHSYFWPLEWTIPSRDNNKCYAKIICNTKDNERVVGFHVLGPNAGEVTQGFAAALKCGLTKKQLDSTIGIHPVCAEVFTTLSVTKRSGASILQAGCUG
In words: Inhibition of TrxR in human HL60 cells using thioredoxin as substrate up to 24 hrs measured for 5 mins by UV-Vis spectrophotometric analysis. It counts as cell-based.

For assay [5], the target named is T1, Thioredoxin reductase 1, cytoplasmic (Homo sapiens). Nature of the assay: Inhibition of TrxR in human HL60 cells assessed as residual activity at 2 times IC50 using thioredoxin as substrate up to 24 hrs measured for 5 mins by UV-Vis spectrophotometric analysis relative to control. The assay is classed as cell-based.
Assay [6] relates to HL-60. Nature of the assay: Induction of ROS generation in human HL60 cells at 1.5 uM after 24 hrs in presence of ROS inhibitor NAC by DCFH-DA staining-based flow cytometry. It counts as functional, cell-based. For orientation: In flow cytometry, cells or beads pass a laser one at a time.
For assay [7], the system named is HL-60. In words: Induction of ROS generation in human HL60 cells at 1.5 uM after 24 hrs in presence of antioxidant DTT by DCFH-DA staining-based flow cytometry. It counts as functional, cell-based.
Assay [8] relates to HL-60. In words: Induction of cell death in human HL60 cells assessed as decrease in total GSH levels after 24 hrs by MTT assay. It counts as functional, cell-based.
Assay [9] deals with HL-60. In words: Induction of apoptosis in human HL60 cells assessed as nuclear shrinkage at 0.75 to 1.5 uM after 24 hrs by Hoechst 33342 staining-based laser scanning confocal microscopic analysis. It counts as functional, cell-based.
For assay [10], the system named is HL-60. Nature of the assay: Induction of apoptosis in human HL60 cells assessed as apoptotic body formation at 0.75 to 1.5 uM after 24 hrs by Hoechst 33342 staining-based laser scanning confocal microscopic analysis. It counts as functional, cell-based.
Assay [11] deals with HL-60. In words: Induction of apoptosis in human HL60 cells assessed as condensed nuclei at 0.75 to 1.5 uM after 24 hrs by Hoechst 33342 staining-based laser scanning confocal microscopic analysis. The assay is classed as functional, cell-based.
The subject of assay [12] is HL-60. In words: Induction of apoptosis in human HL60 cells assessed as cell nuclear shrinkage at 0.75 to 1.5 uM after 24 hrs by Hoechst 33342 staining-based laser scanning confocal microscopic analysis. The assay is classed as functional.
The test system of assay [13] is HL-60. In words: Induction of apoptosis in human HL60 cells assessed as abnormal cellular morphology at 0.75 to 1.5 uM after 24 hrs by Hoechst 33342 staining-based laser scanning confocal microscopic analysis. The assay is classed as functional, cell-based.
The subject of assay [14] is HL-60. In words: Induction of mitochondrial membrane potential loss in human HL60 cells at 0.75 uM after 24 hrs by JC-1 staining-based flow cytometry (reference value: 24.3%). The assay is classed as functional.
Assay [15] relates to HL-60. In words: Induction of mitochondrial membrane potential loss in human HL60 cells at 1.5 uM after 24 hrs by JC-1 staining-based flow cytometry (reference value: 24.3%). The assay is classed as functional.
Assay [16] deals with Liver. In words: Induction of mitochondrial dysfunction in Wistar rat liver assessed as swelling up to 30 uM for 60 mins. It counts as functional. The note with it: mitochondria.
Assay [17] relates to Liver. Nature of the assay: Induction of mitochondrial dysfunction in Wistar rat liver assessed as swelling at 20 uM in presence of calcium related inhibitor cyclosporine A. The assay is classed as functional. The note with it: mitochondria.
Assay [18] deals with HL-60. In words: Induction of cell death in human HL60 cells at 1 to 1.5 uM after 24 hrs in presence of […] BSO by MTT assay. The assay is classed as functional, cell-based.
Assay [19] deals with T1, Thioredoxin reductase 1, cytoplasmic (Homo sapiens). In words: Inhibition of TrxR in human HL60 cells assessed as residual activity at 1.5 using thioredoxin as substrate measured for 5 mins by UV-Vis spectrophotometric analysis. The assay is classed as cell-based.
For assay [20], the system named is HL-60. In words: Induction of mitochondrial membrane potential loss in human HL60 cells at 0.75 uM after 24 hrs by JC-1 staining-based flow cytometry (reference value: 28.6%). It counts as functional.
Assay [21] concerns HL-60. In words: Induction of mitochondrial membrane potential loss in human HL60 cells at 1.5 uM after 24 hrs by JC-1 staining-based flow cytometry (reference value: 28.6%). The assay is classed as functional.

`Oc1ccccc1/C=N/c1ccc([As]2SCCCS2)cc1`: the Activity result is “Dose-dependent effect” with HL-60 [1]; “Dose-dependent effect” in the assay with MCF7 [2]; “Dose-dependent effect” in the assay with MCF7 [3]; 20% in assay [5]; “Dose-dependent effect” in the assay with HL-60 [8]; 49.1% in the assay with HL-60 [14]. The compound further returned an Activity with HL-60 [15] of 71%. The 50% inhibitory concentration (IC50) was found to be 0.94 µM in the assay with HL-60 [1], 5.7 µM in the assay on MCF7 [2] and 2.44 µM with MCF7 [3]. Besides, the inhibition result in [4] and in assay [19] was “Dose-dependent effect” in each case. For the same compound, the result in the assay with HL-60 [6], in the assay with HL-60 [7] and in the assay on Liver [17] was inactive. In addition, the result in the assay with HL-60 [9], in the assay with HL-60 [10], with HL-60 [11], in the assay on HL-60 [12], in the assay with HL-60 [13] and in the assay with Liver [16] was Active. Also, the result in the assay on HL-60 [18] was Active.
On to `O=C(Nc1ccc([As]2SCCCS2)cc1)c1ccccc1O`, for which the Activity result was “Dose-dependent effect” in the assay with HL-60 [1]; “Dose-dependent effect” in the assay on MCF7 [2]; “Dose-dependent effect” in the assay on MCF7 [3]; 20% in assay [5]; “Dose-dependent effect” in the assay on HL-60 [8]; 51.8% in the assay on HL-60 [20]. In the assay with HL-60 [21], this compound had an Activity of 71.8%. For the same compound, the results for the IC50 in the assay on HL-60 [1], in the assay on MCF7 [2] and in the assay with MCF7 [3] were 0.84 µM, 11.9 µM and 7.89 µM, respectively. In addition, the inhibition result in assay [4] and in assay [19] was “Dose-dependent effect” each time. Further, the result with HL-60 [6], in the assay with HL-60 [7] and in the assay on Liver [17] was inactive. The result in the assay with HL-60 [9], in the assay with HL-60 [10], with HL-60 [11], in the assay on HL-60 [12], in the assay with HL-60 [13] and in the assay on Liver [16] was Active. Besides, in the assay on HL-60 [18], the outcome was Active.
